In the assay the target is Protein cereblon/Tyrosine-protein kinase JAK2 (Homo sapiens, UniProt O60674+Q96SW2). Nature of the assay: PROTAC activity at CRBN/JAK2 in human MHHCALL4 cells assessed as protein degradation by immunoblot analysis. Type of assay: cell-based. A general note: Immunoblotting shows a protein as a band on a membrane.

The term EC50 denotes the concentration that produces a half-maximal response.

Sequence of Protein cereblon/Tyrosine-protein kinase JAK2 (O60674 whole entry): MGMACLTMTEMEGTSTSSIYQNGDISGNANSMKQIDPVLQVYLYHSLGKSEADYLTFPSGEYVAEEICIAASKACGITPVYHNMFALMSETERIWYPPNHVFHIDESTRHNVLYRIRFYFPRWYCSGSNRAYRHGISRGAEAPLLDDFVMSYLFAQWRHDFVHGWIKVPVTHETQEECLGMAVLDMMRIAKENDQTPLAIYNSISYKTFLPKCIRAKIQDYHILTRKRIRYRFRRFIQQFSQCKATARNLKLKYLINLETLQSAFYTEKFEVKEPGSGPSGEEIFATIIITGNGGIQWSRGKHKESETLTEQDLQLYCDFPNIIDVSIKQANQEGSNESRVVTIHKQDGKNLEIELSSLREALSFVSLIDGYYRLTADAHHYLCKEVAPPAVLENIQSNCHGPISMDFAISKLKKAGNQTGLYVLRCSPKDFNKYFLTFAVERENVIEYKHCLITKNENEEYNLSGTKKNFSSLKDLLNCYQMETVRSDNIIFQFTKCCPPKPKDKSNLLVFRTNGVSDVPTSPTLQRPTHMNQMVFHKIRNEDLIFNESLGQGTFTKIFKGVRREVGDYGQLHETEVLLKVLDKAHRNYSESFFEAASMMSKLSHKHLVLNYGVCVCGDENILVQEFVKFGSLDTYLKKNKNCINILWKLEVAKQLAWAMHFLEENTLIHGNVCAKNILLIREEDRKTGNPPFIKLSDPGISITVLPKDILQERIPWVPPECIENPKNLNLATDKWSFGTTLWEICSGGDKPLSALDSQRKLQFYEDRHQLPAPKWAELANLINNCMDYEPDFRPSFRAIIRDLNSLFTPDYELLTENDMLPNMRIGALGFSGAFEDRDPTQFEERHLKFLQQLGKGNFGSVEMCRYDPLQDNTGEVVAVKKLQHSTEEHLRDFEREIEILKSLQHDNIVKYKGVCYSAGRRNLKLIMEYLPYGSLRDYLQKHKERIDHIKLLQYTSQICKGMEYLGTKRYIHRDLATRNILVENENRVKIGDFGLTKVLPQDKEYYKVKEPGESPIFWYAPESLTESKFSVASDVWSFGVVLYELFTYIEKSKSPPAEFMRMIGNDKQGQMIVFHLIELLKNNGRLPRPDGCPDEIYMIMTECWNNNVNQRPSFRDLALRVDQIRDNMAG
Sequence of Protein cereblon/Tyrosine-protein kinase JAK2 (Q96SW2 whole entry): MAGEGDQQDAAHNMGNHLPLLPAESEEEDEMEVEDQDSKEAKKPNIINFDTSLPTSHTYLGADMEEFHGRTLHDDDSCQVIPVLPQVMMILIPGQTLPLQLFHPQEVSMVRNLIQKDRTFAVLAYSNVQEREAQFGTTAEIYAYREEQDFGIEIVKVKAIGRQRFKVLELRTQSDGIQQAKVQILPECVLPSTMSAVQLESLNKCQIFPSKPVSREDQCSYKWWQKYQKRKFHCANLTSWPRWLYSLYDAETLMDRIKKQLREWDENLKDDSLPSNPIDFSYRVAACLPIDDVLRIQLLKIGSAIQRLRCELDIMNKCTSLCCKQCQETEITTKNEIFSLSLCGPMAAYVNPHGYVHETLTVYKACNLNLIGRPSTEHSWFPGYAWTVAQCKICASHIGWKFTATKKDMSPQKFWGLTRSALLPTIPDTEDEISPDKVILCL

As for `CCCn1cc(-c2nc(Nc3ccc(C(=O)NCCCCCNc4cccc5c4C(=O)N(C4CCC(=O)NC4=O)C5=O)cc3)nc3[nH]ccc23)cn1` (stereo not drawn), the concentration for a half-maximal effect (EC50) stood at 0.9 nM.

Consider `CCCn1cc(-c2nc(Nc3ccc(C(=O)NCCCCCNc4cccc5c4CN(C4CCC(=O)NC4=O)C5=O)cc3)nc3[nH]ccc23)cn1` (stereo not drawn), for which the EC50 is 0.5 nM.

Take `CCCn1cc(-c2nc(Nc3ccc(C(=O)NCCOCCOCCOCCOCCOCCNc4cccc5c4C(=O)N(C4CCC(=O)NC4=O)C5=O)cc3)nc3[nH]ccc23)cn1` (stereo not drawn): the concentration giving a half-maximal response (EC50) was 1100 nM.

`CCCn1cc(-c2nc(Nc3ccc(C(=O)NCCOCCOCCOCCOCCNc4cccc5c4C(=O)N(C4CCC(=O)NC4=O)C5=O)cc3)nc3[nH]ccc23)cn1` (stereo not drawn): the half-maximal effective concentration (EC50) was found to be 2300 nM.

Take `CCCn1cc(-c2nc(Nc3ccc(C(=O)NCCOCCOCCOCCOCCOCCOCCNc4cccc5c4C(=O)N(C4CCC(=O)NC4=O)C5=O)cc3)nc3[nH]ccc23)cn1` (stereo not drawn): the half-maximal effective concentration (EC50) turned out to be 720 nM.

With `CCCn1cc(-c2nc(Nc3ccc(C(=O)NCCCCNc4cccc5c4C(=O)N(C4CCC(=O)NC4=O)C5=O)cc3)nc3[nH]ccc23)cn1` (stereo not drawn), the EC50 was found to be 0.2 nM.

On to `CCCn1cc(-c2nc(Nc3ccc(C(=O)NCCCNc4cccc5c4C(=O)N(C4CCC(=O)NC4=O)C5=O)cc3)nc3[nH]ccc23)cn1` (stereo not drawn), for which the EC50 amounted to 0.5 nM.

Regarding `N#CC[C@H](C1CCCC1)n1cc(-c2nc(Nc3ccc(C(=O)NCCCCNc4cccc5c4C(=O)N(C4CCC(=O)NC4=O)C5=O)cc3)nc3[nH]ccc23)cn1` (stereo partly drawn), the half-maximal effective concentration (EC50) stood at 3.9 nM.

For the origin of these results see ChEMBL document CHEMBL4706764, “PROTAC-Mediated Degradation of Janus Kinase as a Therapeutic Strategy for Cancer and Rheumatoid Arthritis” (ACS Med Chem Lett, 2021).
